From EP4471048A1, “PEPTIDE INHIBITORS OF INTERLEUKIN-23 RECEPTOR” (Zealand Pharma A/S, priority 2023, dated 2024)
pIC50: −log10 of the molar value. Where a SMILES comes first, the peptide text is derived from it. Bridges are numbered along the chain shown (N, C = ends). [ ]: non-standard residue; d: D form. 2Nal = N[C@@H](Cc1ccc2ccccc2c1)C(=O)O; AEF = NCCOc1ccc(C[C@H](N)C(=O)O)cc1; 3Pal = N[C@@H](Cc1cccnc1)C(=O)O; αMeL = CC(C)C[C@](C)(N)C(=O)O; NMeK = CN[C@@H](CCCCN)C(=O)O; Orn = NCCC[C@H](N)C(=O)O; Dab = NCC[C@H](N)C(=O)O; βAla = NCCC(=O)O

Legend:
[1] = Peptide stability in simulated intestinal fluid (SIF); type: in vitro ADME; conditions: pig, 37 °C, porcine pancreatin; for remaining at 1 h, 10 µM: pH 6.8, 1 h; for remaining at 4 h, 10 µM: pH 6.8, 4 h, read-out: SIF (% remaining 4 h)
Method: (§1) SGF was prepared by dissolving sodium chloride (0.2 g) in 50 mL of water. A volume of 0.7 mL of 10 M HCl was added to adjust the pH of the solution to 1.2 and the volume made up to 100 mL with water. […] SIF was prepared by dissolving monobasic potassium phosphate (0.68 g) in 50 mL of water and adjusting the pH to 6.8 with 1 M NaOH. The volume was subsequently made up to 100 mL with water. 200 mg porcine pancreatin (P1625, Sigma Aldrich) was gently dissolved into 20 mL preheated (37 °C) solution (10 g/L) immediately prior to the incubation.
(§2) The incubation was performed at 37 °C with gentle shaking. […] After the last timepoint, the sampling plate was mixed for 10 min on a shaking table and centrifuged 10 min at 2200 g. 70 µL resulting supernatant was diluted with 150 µL water, mixed and centrifugated before analysis by liquid chromatography high resolution mass spectrometry. […] Percent remaining at each timepoint was calculated relative to timepoint zero based on absolute peak areas.
Compounds with a SIF stability (after 4 h) above 70% are considered highly SIF stable.

[2] = Peptide stability in simulated gastric fluid (SGF); type: in vitro ADME; conditions: 37 °C, porcine pepsin; for remaining at 1 h, 10 µM / remaining at 4 h, 10 µM: pig, simulated gastric fluid (SGF) with porcine pepsin (3.2 g/L), pH 1.2, 10 µM; for remaining at 1 h, 10 µM: pH 1.2, 1 h, read-out: SGF (% remaining 1 h); for remaining at 4 h, 10 µM: read-out: SGF (% remaining 4 h)
Method: as §1, §2
Compounds with a SGF stability (after 4 h) above 70% are considered highly SGF stable. […] Table 3-4: SGF data

human IL-23R = biological target: T1, human IL-23R (Homo sapiens, UniProt Q5VWK5); experiment: biochemical; conditions: for Emax: read-out: % displacement (hIL-23R NIuc)
T1 sequence (Q5VWK5 22-629): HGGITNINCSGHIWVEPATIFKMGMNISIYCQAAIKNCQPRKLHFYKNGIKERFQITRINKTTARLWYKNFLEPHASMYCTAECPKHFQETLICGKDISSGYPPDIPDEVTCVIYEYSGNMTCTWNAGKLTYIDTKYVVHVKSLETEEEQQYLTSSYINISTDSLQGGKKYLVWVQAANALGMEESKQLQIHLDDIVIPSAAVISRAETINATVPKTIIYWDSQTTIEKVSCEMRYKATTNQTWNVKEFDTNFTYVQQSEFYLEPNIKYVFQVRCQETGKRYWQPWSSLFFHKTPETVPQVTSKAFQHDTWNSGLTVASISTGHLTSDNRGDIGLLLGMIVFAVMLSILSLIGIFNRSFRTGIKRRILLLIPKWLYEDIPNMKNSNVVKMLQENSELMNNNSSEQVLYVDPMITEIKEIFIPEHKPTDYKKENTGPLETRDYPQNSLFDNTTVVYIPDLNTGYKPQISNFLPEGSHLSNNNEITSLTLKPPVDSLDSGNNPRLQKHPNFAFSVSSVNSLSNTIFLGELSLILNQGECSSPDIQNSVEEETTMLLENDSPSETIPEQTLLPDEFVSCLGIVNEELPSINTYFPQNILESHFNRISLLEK
Method in brief: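 BRET displacement of a TAMRA-labelled reference compound from N-terminal Nanoluc-IL-23R fusion protein in membranes from stably transfected HEK293 cells. Incubation 2 h at room temperature, then Nanoluc substrate was added and the TAMRA/Nanoluc ratio read. IC50 and maximal displacement came from 4-parameter logistic fits.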

Structure (SMILES) | remaining at 1 h, 10 µM [1] [%] | remaining at 4 h, 10 µM [1] [%] | remaining at 1 h, 10 µM [2] [%] | remaining at 4 h, 10 µM ([2]; pH 1.2, 4 h) [%] | pIC50 (human IL-23R) | Emax (human IL-23R) [%] | SGF (% remaining 4 h) ([2]; 10 µM, pH 1.2, 4 h) [%] | % displacement (hIL-23R NIuc) (human IL-23R) [%]
CC[C@H](C)[C@@H]1NC(=O)[C@@H]2CCCCNC(=O)CC[C@@H](C(=O)N[C@@H](CCN)C(=O)N[C@@H](Cc3cccnc3)C(=O)NC)NC(=O)[C@](C)(CC(C)C)NC(=O)[C@H](Cc3ccc4ccccc4c3)NC(=O)[C@H](Cc3ccc(OCCN)cc3)NC(=O)[C@H](CCC(=O)N2C)NC(=O)[C@H](CCC(N)=O)NC(=O)[C@H](Cc2c[nH]c3ccccc23)NC(=O)[C@H](C(C)C)NC1=O [Compound 75, [N-Me-Lys](1c)(6c)^†IVWQE(6c)[Y(2-aminoethoxy)][2-Nal][2-Me-Leu]E(1c)[Dab][3-(3-Pyridyl)-Ala]-[NHMe]] | 96 | 79 | 102 | 92 | 10.77 | 101 | – | –
CNC(=O)[C@H](Cc1cccnc1)NC(=O)[C@H](CCN)NC(=O)[C@@H]1CCC(=O)NCCCC[C@H]2C(=O)NCCC(=O)N[C@@H](Cc3c[nH]c4ccccc34)C(=O)N[C@@H](CCC(N)=O)C(=O)N[C@@H](CCC(=O)N2C)C(=O)N[C@@H](Cc2ccc(OCCN)cc2)C(=O)N[C@@H](Cc2ccc3ccccc3c2)C(=O)N[C@@](C)(CC(C)C)C(=O)N1 [Compound 80, [N-Me-Lys](1c)(6c)^†[3-Aminopropanoyl]WQE(6c)[Y(2-aminoethoxy)][2-Nal][2-Me-Leu]E(1c)[Dab][3-(3-Pyridyl)-Ala]-[NHMe]] ([NMeK][βAla]WQE[AEF][2Nal][αMeL]E[Dab][3Pal]-NHMe; lactam 1-9, N-5) | 116 | 89 | 107 | 104 | 10.77 | 102 | – | –
CNC(=O)[C@H](Cc1cccnc1)NC(=O)[C@H](CCN)NC(=O)[C@@H]1CCC(=O)NCCCC[C@@H]2NC(=O)CC[C@H](NC(=O)[C@H](CCC(N)=O)NC(=O)[C@H](Cc3c[nH]c4ccccc34)NC(=O)CCN(C)C2=O)C(=O)N[C@@H](Cc2ccc(OCCN)cc2)C(=O)N[C@@H](Cc2ccc3ccccc3c2)C(=O)N[C@@](C)(CC(C)C)C(=O)N1 [Compound 81, K(1c)(6c)^†[N-Me-3-Aminopropanoyl]WQE(6c)[Y(2-aminoethoxy)][2-Nal][2-Me-Leu]E(1c)[Dab][3-(3-Pyridyl)-Ala]-[NHMe]] | 101 | 78 | 100 | – | 10.25 | – | 99 | 103
CNC(=O)[C@H](Cc1cccnc1)NC(=O)[C@H](CCN)NC(=O)[C@@H]1CCC(=O)NCCCC[C@@H]2NC(=O)CC[C@H](NC(=O)[C@H](CCC(N)=O)NC(=O)[C@H](Cc3c[nH]c4ccccc34)NC(=O)CCNC2=O)C(=O)N[C@@H](Cc2cccnc2)C(=O)N[C@@H](Cc2ccc3ccccc3c2)C(=O)N[C@@](C)(CC(C)C)C(=O)N1 [Compound 83, K(1c)(6c)^†[3-Aminopropanoyl]WQE(6c)[3-(3-Pyridyl)-Ala][2-Nal][2-Me-Leu]E(1c)[Dab][3-(3-Pyridyl)-Ala]-[NHMe]] | 94 | 86 | 106 | 97 | 9.42 | 101 | – | –
CNC(=O)[C@H](Cc1cccnc1)NC(=O)[C@H](CCN)NC(=O)[C@@H]1CCC(=O)NCCCC[C@@H]2NC(=O)CC[C@H](NC(=O)[C@H](CCC(N)=O)NC(=O)[C@H](Cc3c[nH]c4ccccc34)NC(=O)CCNC2=O)C(=O)N[C@@H](Cc2ccccn2)C(=O)N[C@@H](Cc2ccc3ccccc3c2)C(=O)N[C@@](C)(CC(C)C)C(=O)N1 [Compound 84, K(1c)(6c)^†[3-Aminopropanoyl]WQE(6c)[3-(2-Pyridyl)-Ala][2-Nal][2-Me-Leu]E(1c)[Dab][3-(3-Pyridyl)-Ala]-[NHMe]] | 92 | 82 | 107 | 103 | 9.96 | 97 | – | –
CNC(=O)[C@H](Cc1cccnc1)NC(=O)[C@H](CCN)NC(=O)[C@@H]1CCC(=O)NCCCC[C@@H]2NC(=O)CC[C@H](NC(=O)[C@H](CCC(N)=O)NC(=O)[C@H](Cc3c[nH]c4ccccc34)NC(=O)CCNC2=O)C(=O)N[C@@H](Cc2ccncc2)C(=O)N[C@@H](Cc2ccc3ccccc3c2)C(=O)N[C@@](C)(CC(C)C)C(=O)N1 [Compound 85, K(1c)(6c)^†[3-Aminopropanoyl]WQE(6c)[3-(4-Pyridyl)-Ala][2-Nal][2-Me-Leu]E(1c)[Dab][3-(3-Pyridyl)-Ala]-[NHMe]] | 103 | 85 | 109 | 110 | 9.77 | 97 | – | –
CNC(=O)[C@H](Cc1cccnc1)NC(=O)[C@H](Cc1cnc[nH]1)NC(=O)[C@@H]1CCC(=O)NCCCC[C@@H]2NC(=O)CC[C@H](NC(=O)[C@H](CCC(N)=O)NC(=O)[C@H](Cc3c[nH]c4ccccc34)NC(=O)CCNC2=O)C(=O)N[C@@H](Cc2ccc(OCCN)cc2)C(=O)N[C@@H](Cc2ccc3ccccc3c2)C(=O)N[C@@](C)(CC(C)C)C(=O)N1 [Compound 86, K(1c)(6c)^†[3-Aminopropanoyl]WQE(6c)[Y(2-aminoethoxy)][2-Nal][2-Me-Leu]E(1c)H[3-(3-Pyridyl)-Ala]-[NHMe]] | 77 | 36 | 94 | 111 | 10.31 | – | – | 101
CNC(=O)[C@H](Cc1cccnc1)NC(=O)[C@H](Cc1cccnc1)NC(=O)[C@@H]1CCC(=O)NCCCC[C@@H]2NC(=O)CC[C@H](NC(=O)[C@H](CCC(N)=O)NC(=O)[C@H](Cc3c[nH]c4ccccc34)NC(=O)CCNC2=O)C(=O)N[C@@H](Cc2ccc(OCCN)cc2)C(=O)N[C@@H](Cc2ccc3ccccc3c2)C(=O)N[C@@](C)(CC(C)C)C(=O)N1 [Compound 87, K(1c)(6c)^†[3-Aminopropanoyl]WQE(6c)[Y(2-aminoethoxy)][2-Nal][2-Me-Leu]E(1 c)[3-(3-Pyridyl)-Ala][3-(3-Pyridyl)-Ala]-[NHMe]] | 1 | 1 | 87 | 89 | 10.41 | – | – | 103
CNC(=O)[C@H](Cc1cccnc1)NC(=O)[C@H](CCN)NC(=O)[C@@H]1CCC(=O)NCCC[C@@H]2NC(=O)CC[C@H](NC(=O)[C@H](CCC(N)=O)NC(=O)[C@H](Cc3c[nH]c4ccccc34)NC(=O)CCNC2=O)C(=O)N[C@@H](Cc2ccc(OCCN)cc2)C(=O)N[C@@H](Cc2ccc3ccccc3c2)C(=O)N[C@@](C)(CC(C)C)C(=O)N1 [Compound 91, [Orn](1c)(6c)^†[3-Aminopropanoyl]WQE(6c)[Y(2-aminoethoxy)][2-Nal][2-Me-Leu]E(1c)[Dab][3-(3-Pyridyl)-Ala]-[NHMe]] ([Orn][βAla]WQE[AEF][2Nal][αMeL]E[Dab][3Pal]-NHMe; lactam 1-9, N-5) | 98 | 57 | 116 | 115 | 9.46 | 100 | – | –
CC[C@H](C)[C@H]1CC(=O)N[C@@H](Cc2c[nH]c3ccccc23)C(=O)N[C@@H](CCC(N)=O)C(=O)N[C@H]2CCC(=O)N[C@@H](CCCCNC(=O)CC[C@@H](C(=O)N[C@@H](CCN)C(=O)N[C@@H](Cc3cccnc3)C(=O)NC)NC(=O)[C@](C)(CC(C)C)NC(=O)[C@H](Cc3ccc4ccccc4c3)NC(=O)[C@H](Cc3ccc(OCCN)cc3)NC2=O)C(=O)N1 [Compound 96, K(1c)(6c)^†[beta-hlle]WQE(6c)[Y(2-aminoethoxy)][2-Nal][2-Me-Leu]E(1c)[Dab][3-(3-Pyridyl)-Ala]-[NHMe]] | 103 | 105 | 105 | 105 | 10.52 | 91 | – | –
